Reference: patent US4299822A, “N-Trifluoroacetyladriamycin-14-O-hemiglutarate and -hemiadipate and therapeutic compositions containing same” (Sidney Farber Cancer Institute, Inc., priority 1980, dated 1981)

Tests used:
[1] = cited from earlier work
[2] = system: murine P388 leukemia; test: in vivo antitumor activity against murine P388 leukemia, ip qd 1-4; set-up: species or system mouse (BDF1 male mice); details: 10% Emulphor EL-620, 10% ethanol, 80% saline
Procedure: (§1) The toxicity and therapeutic effectiveness of the new compounds and active agents of the present invention are shown by in vitro assays and by in vivo evaluations in mice. The in vitro assays measure the growth inhibiting activity of the materials against the CCRF-CEM cell line in culture. The cell line was derived from the peripheral blood of a child with lymphoblastic leukemia as described by Foley et al., Cancer, Volume 18, page 522 et seq. (1965), and the assays were carried out by the procedure of Foley and Lazarus, Biochem. Pharmacol., Volume 16, pages 659 et seq. (1967), the results being reported in terms of the dose in micromoles per liter required to inhibit growth of the cultures by 50% relative to control cultures to which no drug had been added (ID50). The in vivo evaluations were made by preparing a 0.2 to 0.7% by weight solution of the active agent in a formulation consisting of 10% by volume of each polyethoxylated castor oil and ethanol in saline and injecting the dosage intraperitoneally. The evaluations were made of the antitumor activity against the murine P388 and murine L1210 leukemias in BDF1 male mice according to standard National Cancer Institute protocols as set forth by Geran et al., Cancer Chemotherap. Rep., Part 3, Volume 3, pages 1 et seq. (1972) , except that a qd 1-4 schedule was used in place of qd 1-9 in order to conserve materials.
(§2) Optimal dosage was determined by testing doses which were at several multiples of 10 milligrams/kilogram of body weight. Some effectiveness can be observed at dosages ranging from 30 to 70 milligrams/kilogram of body weight, depending upon the particular compound employed.
The following table summarizes the in vivo antitumor activity of the same compounds as those in Table I, evaluated against murine P388 leukemia as described above. All compounds were administered intraperitoneally, adriamycin in clinical formulation (1 part adriamycin plus 5 parts lactose, in 0.9% saline), the other compounds in 10% Emulphor EL-620, 10% ethanol, 80% isotonic saline.

[3] = cited from earlier work; remark: listed apart in the source
[4] = system: CCRF-CEM cells; test: growth inhibition of CCRF-CEM cell line in culture; type: cell-based; details: Homo sapiens; CCRF-CEM cells, in vitro; read-out: ID50 (dose required to inhibit growth of the cultures by 50% relative to control)
Text: The in vitro assays measure the growth inhibiting activity of the materials against the CCRF-CEM cell line in culture. […] The in vivo evaluations were made by preparing a 0.2 to 0.7% by weight solution of the active agent in a formulation consisting of 10% by volume of each polyethoxylated castor oil and ethanol in saline and injecting the dosage intraperitoneally. The evaluations were made of the antitumor activity against the murine P388 and murine L1210 leukemias in BDF1 male mice according to standard National Cancer Institute protocols as set forth by Geran et al., Cancer Chemotherap. Rep., Part 3, Volume 3, pages 1 et seq.

[5] = pH 7.4
[6] = system: murine L1210 leukemia; test: in vivo antitumor activity against L1210 leukemia, ip days 1-4; set-up: species or system mouse (BDF1 male mice); details: 10% Emulphor EL-620, 10% ethanol, 80% isotonic saline
Procedure: as §1, §2
All compounds were administered intraperitoneally; in tests (1) and (2), the compounds were in 10% Emulphor EL-620, 10% ethanol, and 80% isotonic saline. In test (3) the compound was in aqueous buffer containing monobasic potassium phosphate and sodium hydroxide (0.05 M), pH 7.40: […]

[7] = animals and human clinical tests

**Q.** What does the source list for `CCCCC(=O)OCC(=O)C1(O)Cc2c(O)c3c(c(O)c2C(OC2CC(NC(=O)C(F)(F)F)C(O)C(C)O2)C1)C(=O)c1c(OC)cccc1C3=O` (stereo not shown) [N-Trifluoroacetyladriamycin-14-valerate]?
**A.** water solubility [1]: essentially water-insoluble; % ILS (percent increase in life span relative to untreated controls) ([2]; each dose 20.0 mg/kg ip): 281%; No. alive on d 30 ([2]; each dose 20.0 mg/kg ip): 5/7; No. alive on d 60 ([2]; each dose 20.0 mg/kg ip): 3/7; Survival, Median day of death (range) ([2]; each dose 20.0 mg/kg ip): 42.0 (21-42) day; No. alive on d 30 ([2]; each dose 30.0 mg/kg ip): 4/7; No. alive on d 60 ([2]; each dose 30.0 mg/kg ip): 4/7; Survival, day of death (range only, no median) ([2]; each dose 30.0 mg/kg ip): 21 to 26 days; No. alive on d 30 ([2]; each dose 40.0 mg/kg ip): 6/7; No. alive on d 60 ([2]; each dose 40.0 mg/kg ip): 6/7; Survival, day of death (range only, no median) ([2]; each dose 40.0 mg/kg ip): 30,71 day; % ILS (percent increase in life span relative to untreated controls) ([2]; each dose 50.0 mg/kg ip): 763%; No. alive on d 30 ([2]; each dose 50.0 mg/kg ip): 5/7; No. alive on d 60 ([2]; each dose 50.0 mg/kg ip): 5/7; Survival, Median day of death (range) ([2]; each dose 50.0 mg/kg ip): 95.0 (24-95) day; % ILS (percent increase in life span relative to untreated controls) ([2]; each dose 60.0 mg/kg ip): 718%; No. alive on d 30 ([2]; each dose 60.0 mg/kg ip): 5/7; No. alive on d 60 ([2]; each dose 60.0 mg/kg ip): 5/7; Survival, Median day of death (range) ([2]; each dose 60.0 mg/kg ip): 90.0 (9-90) day; cardiotoxicity relative to parent drug [3, 7]: significantly less cardiotoxic than the parent drug; toxicity in general relative to parent drug [3, 7]: less toxic in general; therapeutic effect relative to adriamycin and daunomycin ([3]; human, in vivo): therapeutically superior to adriamycin and to daunomycin; IC50 [4]: 0.24 µM; solubility in water (in words) [5]: a few micrograms; % ILS (percent median increase in life span relative to untreated controls, calculated as of day 50) ([6]; 50.0 mg/kg/d × 4 ip): > 456%; No. alive on d 50 ([6]; 50.0 mg/kg/d × 4 ip): 5/7; % ILS (percent median increase in life span relative to untreated controls, calculated as of day 50) ([6]; 60.0 mg/kg/d × 4 ip): > 456%; No. alive on d 50 ([6]; 60.0 mg/kg/d × 4 ip): 6/7
